Data from US20240041898A9, “NEUROSTEROIDS AND ENANTIOMERS THEREOF FOR THE PREVENTION AND TREATMENT OF NEURODEGENERATIVE CONDITIONS” (priority 2019, published 2024).
Where “and” joins values, the source holds several entries; their conditions need not be identical. Equal values may be shown once.

Key:
[1] = test system: TUNEL-positive RGCs; assay: Ex vivo pressure-loaded retinas, TUNEL staining (apoptosis); type: cell-based, rat; conditions: 75 mmHg, 1 μM, single values
Procedure: Rat ex vivo Eyecup Preparation—Rat ex vivo eyecups were prepared from 28-32 day old male Sprague-Dawley rats (Charles River Laboratories International Inc., Wilmington, MA). The anterior half of the enucleated eyes was carefully removed to make eyecup preparations. Eyecups were placed at the bottom of a 100 ml glass beaker filled with aCSF (artificial cerebrospinal fluid) containing (in mM): 124 NaCl, 5 KCl, 2 MgSO4, 2 CaCl2, 1.25 NaH2PO4, 22 NaHCO3, and 10 glucose, and incubated at 30° C. for 24 hours using a closed pressure-loading system (FIG. 1C). pH was maintained at 7.35 to 7.40. […]
Acutely prepared eyecups were incubated in gassed aCSF for at least 1 h at 30° C. before pressure loading. […] For pressure loading, the 95% O2-5% CO2 gas mixture was infused until the pressure reading given by a manometer reached the appropriate level. The pressure was then locked by adjusting the control dial of the effusion valve, and monitored continuously for 24 h at 30° C.
Apoptosis—To visualize apoptotic cells, a DeadEnd™ Colorimetric TUNEL (TdT-mediated dUTP Nick-End Labeling) System (Promega, Madison, WI) was used according to the manufacturer's instructions. […] After the length of each retinal section was measured (Image-Pro Plus software), the cells were counted in the whole section length and the number of cells was normalized per 200 μm of retinal section. […]

[2] = test system: LC3-II; assay: Ex vivo pressure-loaded retinas, Western blot of LC3-II; type: cell-based, rat; conditions: ex vivo; for LC3-II expression (FIG. 2Q), Average / LC3-II expression (FIG. 2Q), individual experiments 1-4: relative units, control = 1.00, normalized to β-actin
Procedure: Rat ex vivo Eyecup Preparation—Rat ex vivo eyecups were prepared from 28-32 day old male Sprague-Dawley rats (Charles River Laboratories International Inc., Wilmington, MA). The anterior half of the enucleated eyes was carefully removed to make eyecup preparations. Eyecups were placed at the bottom of a 100 ml glass beaker filled with aCSF (artificial cerebrospinal fluid) containing (in mM): 124 NaCl, 5 KCl, 2 MgSO4, 2 CaCl2, 1.25 NaH2PO4, 22 NaHCO3, and 10 glucose, and incubated at 30° C. for 24 hours using a closed pressure-loading system (FIG. 1C). pH was maintained at 7.35 to 7.40. In the closed-pressure system, a glass beaker with the eyecup was placed at the bottom of an acrylic pressure chamber (2,000 ml volume). A 95% O2-5% CO2 gas mixture was delivered through disposable plastic tubing with an infusion valve and a control dial on the lid of the pressure chamber and an air filter (Cat #SLGP033RS, Merck Millipore, Billerica, MA). The plastic tubing delivering the gas terminated 1 cm above the bottom of the beaker.
Acutely prepared eyecups were incubated in gassed aCSF for at least 1 h at 30° C. before pressure loading. In some experiments, AlloP (1 μM), ent-AlloP (1 μM), and 3-MA (10 mM) were dissolved in aCSF at the time of experiment and administered by bath perfusion. Eyecup preparations were treated with these drugs for 1 h at 30° C. before pressure loading. For pressure loading, the 95% O2-5% CO2 gas mixture was infused until the pressure reading given by a manometer reached the appropriate level. The pressure was then locked by adjusting the control dial of the effusion valve, and monitored continuously for 24 h at 30° C.
Western Blot Analysis—At the end of each experiment, the posterior segments of the eye were placed on a flat cutting surface and immersed in ice-cold aCSF. With a surgical blade, the retina was carefully and gently detached from the sclera with a fine forceps. The isolated retinas were frozen at −80° C. Retinas were then homogenized in lysis buffer solution (CelLytic MT; Sigma-Aldrich, Inc.) with protease inhibitor cocktail (Sigma-Aldrich, Inc.), prepared according to the manufacturer's instructions. The tissue extracts were ultrasonicated and clarified by centrifugation at 12,000 g for 20 minutes at 4° C. The protein concentrations in supernatants were assayed (Quant-iT assay kit; Invitrogen Corp., Carlsbad, CA). Twenty micrograms of retinal extract were subjected to SDS polyacrylamide gel electrophoretic analysis. The proteins were then transferred to a PVDF. Immunoblots by polyclonal rabbit anti-LC3B antibody (MBL Life Science) or anti-SQSTMl/p62 mouse monoclonal antibody (Abcam) were visualized using WesternBreeze Chemiluminescent Immunodetection system (Invitrogen) with the exposure time to autoradiograph film (MXJB Plus; Kodak, Rochester, NY) adjusted to avoid over- or undersaturation. Precision Plus Protein™ Western Standards (Bio-Rad, Hercules, CA) followed by Precision Protein™ strep Tactin-AP conjugate (Bio-Rad) was used for a molecular marker of LC3. MagicMark™ XP Western Protein Standard (Invitrogen, Carlsbad, CA) was used for a molecular marker of p62. Immunoblot data are normalized to β-actin levels in the same sample.
The density of Western blot bands was quantified using Image-Pro Plus software. Quantification was adjusted to protein expression at 10 mmHg after normalization to the β-actin band at each pressure, and the relative gray-scale value was calculated by densitometric analysis of the obtained bands. At least four independent experiments were performed for each condition, and the results are presented as relative units numerically. Differences in expression levels were evaluated using Wilcoxon Rank-Sum Test, Tukey's or Dunnett's multiple comparison test. Sample numbers were four to five per each experimental condition.

In the case of CC(=O)[C@H]1CC[C@H]2[C@@H]3CC[C@H]4C[C@H](O)CC[C@]4(C)[C@H]3CC[C@]12C [AlloP, allopregnanolone], the “TUNEL Staining (number of TUNEL-positive RGCs), individual areas 1-5” value [1] is reported as 7 per 200 μm of retina section and 0 per 200 μm of retina section (3×) and 2 per 200 μm of retina section, the “LC3-II expression (FIG. 2Q), Average” value ([2]; Average of 4) is reported as 3.62 and the “LC3-II expression (FIG. 2Q), individual experiments 1-4” value ([2]; single values) is reported as 4.31 and 3.47 and 3.34 (2×).
In the case of CC(=O)[C@@H]1CC[C@@H]2[C@H]3CC[C@@H]4C[C@@H](O)CC[C@@]4(C)[C@@H]3CC[C@]21C [ent-AlloP, ent-allopregnanolone], the “TUNEL Staining (number of TUNEL-positive RGCs), individual areas 1-5” value [1] is reported as 10 per 200 μm of retina section and 1 per 200 μm of retina section and 0 per 200 μm of retina section (2×) and 2 per 200 μm of retina section, the “LC3 expression after 3-MA treatment (FIG. 3F), Average” value ([2]; 75 mmHg, 1 μM ent-AlloP, 10 mM 3-MA, relative, ent-AlloP + 3-MA = 1.00, Average of 4) is reported as 9.00 and the “LC3 expression after 3-MA treatment (FIG. 3F), individual experiments 1-4” value ([2]; 75 mmHg, 1 μM ent-AlloP, 10 mM 3-MA, relative, ent-AlloP + 3-MA = 1.00, single values) is reported as 11.20 and 8.89 and 7.78 and 8.11. The “LC3-II expression (FIG. 2Q), Average” value ([2]; Average of 4) was 5.25 and the “LC3-II expression (FIG. 2Q), individual experiments 1-4” value ([2]; single values) was 6.14 and 5.17 and 4.48 and 5.22.
